Test results reported in ChEMBL document CHEMBL5226345, “Lactate dehydrogenase and malate dehydrogenase: Potential antiparasitic targets for drug development studies” (Bioorg Med Chem, 2021).

Key:
[1] = Inhibition of Plasmodium falciparum MDH
[2] = Inhibition of Schistosoma LDH
[3] = Inhibition of Toxoplasma gondii LDH2
[4] = Inhibition of Toxoplasma gondii LDH1
[5] = Inhibition of recombinant his tagged Cryptosporidium parvum LDH expressed in Escherichia coli by spectrophotometric based assay
[6] = Inhibition of Plasmodium falciparum LDH
[7] = Inhibition of Plasmodium falciparum LDH by ELISA method
[8] = Inhibition of Trichomonas vaginalis LDH

NC(=O)C(=O)O [OXAMATE]
IC50 [1]: 2.66 µM

O=C(C1CCCCC1)N1CC(=O)N2CCc3ccccc3C2C1 (stereo not drawn) [PRAZIQUANTEL]
IC50 [2]: Not Active

CCCc1c(O)c(O)c(C(=O)O)c2cc(Cc3ccccc3)c(C)cc12
IC50 [3]: 0.9 µM | IC50 [4]: 3.5 µM | IC50 [5]: 39.5 µM | IC50 [6]: 0.14 µM

O=C1c2ccccc2C(=O)c2c(O)c(O)cc(O)c21 [PURPURIN]
IC50 [5]: 46.3 µM

COc1ccc(CNC(=O)C2=CC(=O)c3c(O)cc(OCCc4ccc(NC(=O)C(=O)O)c(C)c4)cc3C2)cc1
IC50 [6]: 1.75 µM | IC50 [1]: 2.66 µM

Cc1cc2c(C(C)C)c(O)c(O)c(C=O)c2c(O)c1-c1c(C)cc2c(C(C)C)c(O)c(O)c(C=O)c2c1O [GOSSYPOL]
IC50 [3]: 0.1 µM | IC50 [4]: 0.7 µM | IC50 [5]: 11.8 µM

CC(C)c1c(C(=O)Nc2ccccc2)c(-c2ccccc2)c(-c2ccc(F)cc2)n1CC[C@@H](O)C[C@@H](O)CC(=O)O [ATORVASTATIN]
IC50 [7]: 13.1 µM

CCC(C)n1ncn(-c2ccc(N3CCN(c4ccc(OCC5COC(Cn6cncn6)(c6ccc(Cl)cc6Cl)O5)cc4)CC3)cc2)c1=O (stereo not drawn) [ITRACONAZOLE]
IC50 [7]: 9.3 µM

O=C(Nc1ccccc1)c1nnn(-c2ccnc3cc(Cl)ccc23)c1-c1ccccc1
IC50 [8]: 100 µM

O=C(CSc1ccccc1)Nc1cccc2ccccc12
IC50 [5]: 79.6 µM

c1ccc2[nH]cnc2c1 [BENZIMIDAZOLE]
IC50 [2]: Not Active

CC[C@@H]([C@H](C)O)n1ncn(-c2ccc(N3CCN(c4ccc(OC[C@@H]5CO[C@@](Cn6cncn6)(c6ccc(F)cc6F)C5)cc4)CC3)cc2)c1=O [POSACONAZOLE]
IC50 [7]: 2.6 µM
